Reference: patent US12060586B2, “Cell data recorders and uses thereof” (The Broad Institute, Inc., priority 2018, dated 2024)

Tested on: Wnt signaling
Test: Wnt signaling-driven luciferase expression in HEK293T cells
Format: cell-based, human
Details: HEK293T transfected with (LEF-TCF)7-BE3-P2A-Luc; LiCl 50 mM, 24 hours
Description: The Wnt signaling pathway (also known as a signaling cascade) plays a crucial role in embryonic development and aberrant Wnt signaling is associated with a variety of diseases in humans (38). A recording of Wnt signaling was sought using CAMERA 2m in human cells. To achieve this goal, the expression of BE3 was placed under a (LEF-TCF)7 promoter (39) that responds to Wnt signaling to initiate downstream gene expression in CAMERA 2 m.3. […] A (LEF-TCF)7-BE3-P2A-Luc construct that expresses a firefly luciferase protein together with BE3 was included so that Wnt could be monitored simultaneously by luminescence and by high-throughput sequencing of the CCR5 recording locus. […] This increase in Wnt signaling was permanently recorded by a 53-fold increase in base editing at the CCR5 locus upon LiCl treatment (FIG. 5E).
To enable CAMERA 2m to record Wnt signaling, a (TCF/LEF)7 promoter was installed upstream BE3 and BE3-P2A-Luc to generate CAMERA 2 m.3 ((TCF/LEF)7-BE3 and ((TCF/LEF)7-BE3-P2A-Luc). TOPFlash ((TCF/LEF)7-Luc) (47) was used as a transient readout of Wnt signaling. A control plasmid that encodes the Renilla luciferase was included to normalize transfection efficiency for luminescence readout. […]
Firefly luciferase and Renilla luciferase activities were measured 24 hours after LiCl treatment. […]

**Q.** How did the “fold increase in Wnt signaling-driven luciferase expression” value turn out when [Cl-].[Li+] [LiCl] was run?
**A.** Its value is 140 fold.
